Tests used:
APP/PS1 mice = experiment: Auditory-cued fear conditioning (hippocampal-independent) after i.c.v. infusion; type: in vivo, mouse; conditions: wild-type vs APP/PS1 mice, with or without VO-OHpic
Procedure: APP/PS1 and wild-type mice were anesthetized with isofluorane, and i.c.v. delivery cannulas (brain alzet kit III) were implanted with a stereotaxic frame (KOPF Instruments) at the following coordinates according to the bregma: AP, −0.5 mm; ML, 1 mm; and DV, −2.2 mm. Osmotic minipumps (Alzet) were filled with artificial cerebrospinal fluid (aCSF) with or without PTEN inhibitor VO-OHpic (2.5 μM) and equilibrated in 0.9% NaCl at 37° C. for 48 hours. They were attached to the i.c.v. cannula tubing and subcutaneously implanted at the back. After 21 days, behavioral testing was started as described herein. […]
Fear conditioning. […] The animals' behavior was scored by an observer blind to the treatment condition. Using a time-sampling procedure every 2 seconds, each mouse was scored blindly as either freezing or active at the instant the sample was taken. […]
It was posited that if early Aβ-induced cognitive impairment results from a general synaptic bias toward LTD events (Selkoe (2002) Science 298:789-791), dampening this form of synaptic plasticity might prevent cognitive decay. Therefore, it was determined whether in vivo inhibition of PTEN, a lipid phosphatase that is involved in LTD (Jurado, et al. (2010) EMBO J. 29:2827-2840), would rescue cognitive deficits in APP/PS1 mice. […]

CA1 hippocampal region = experiment: LTP of fEPSPs in CA1 of acute hippocampal slices exposed to protofibrillar Aβ42; type: cell-based, mice; conditions: 50 nM VO-OHpic 1 hour before addition of 1 μM Aβ42
Procedure: Mice were anesthetized with sodium pentothal (20 mg/kg ip) and decapitated. The brain was rapidly removed to ice-cold, oxygenated, dissection solution. Coronal slices (300 μm) were made with a vibratome (LEICA VT1200S) and slices were moved to a recovery chamber containing aCSF at room temperature for at least 1.5 hour before recording.
A concentric bipolar platinum-iridium stimulation electrode and a low-resistance glass recording microelectrode filled with aCSF (3-4 MΩ resistance) were placed in CA1 stratum radiatum to record the extracellular field excitatory postsynaptic potentials (fEPSPs). For each slice, an input-output curve was recorded to compare basal synaptic transmission at different conditions. This curve was also used to set the baseline fEPSP at ≈30% (for LTP experiments) or ≈50% (for LTD experiments) of maximal slope. Baseline stimulation was delivered every 15 seconds (0.01 ms duration pulses) for at least 20 minutes before beginning the experiment to ensure stability of the response. LTP was induced by using θ-burst stimulation (4 pulses at 100 Hz, with the bursts repeated at 5 Hz and each tetanus including three 10-burst trains separated by 15 seconds). LTD was induced using 900 pulses at 1 Hz. Responses were recorded for 1 hour after induction of LTP or LTD. […]

[1] = test system: APPswe/lnd-EGFP infected neurons; experiment: APP expression, APP fragments and Aβ production/secretion in APPswe/lnd-infected slice cultures (ELISA, western blot); type: cell-based, rat; conditions: slice cultures with or without PTEN inhibitor
Procedure: Hippocampal slices overexpressing Aβ were maintained for 3 days after virus injection with or without the PTEN inhibitor VO-OHpic, before culture medium was collected for measurements. Aβ40 and Aβ42 level were determined in solubilized hippocampal fractions, cultured hippocampal slices or conditioned media by ELISA according to the manufacturer's instructions (WAKO/Invitrogen) that specifically detect the C-terminus of Aβ40 and Aβ42, respectively.
Hippocampi from APP/PS1 mice or their wild-type littermates and organotypic hippocampal slices infected with APPswe/lnd-EGFP/APPwt-EGFP/APPMV-EGFP were solubilized, and extracts were prepared for western blot analysis. […] APPsα was detected in conditioned media of the respective slices using antibody 6E10 that selectively detects human APPsα. Levels of APP, CTFα and CTFβ were detected in lysates of the infected slices using APPCt antibody. […]
However, this form of depression may in principle be due to Aβ exposure, to intracellular fragments derived from APP processing, or a combination thereof. To test the role of PTEN specifically in the effects of neuron-secreted Aβ, synaptic dysfunctions were monitored in untransfected cells neighboring APPswe/lnd-expressing neurons. […]

## O=C(O)c1ncccc1O.O=C(O)c1ncccc1O.[O]=[V][O-] [VO-OHpic]
APP/PS1 mice
  auditory-cued fear conditioning (percentage freezing to the tone): did not show significant difference
CA1 hippocampal region
  LTP expression in presence of Aβ42: rescued the expression of LTP
[1]
  recombinant APP expression, formation of C-terminal APP fragments, Aβ production/secretion: independent of VO-OHpic treatment

From patent US20170165317A1, “METHOD FOR MITIGATING OR ALLEVIATING SYNAPTIC AND COGNITIVE DEFICITS” (Trustees of Dartmouth College, priority 2013, published 2017)
